Assay results from patent US4794188A, “Certain unsymmetrical quinolinyl ethers having anti-inflammatory and anti-allergic activity” (USV Pharmaceutical Corporation, priority 1985, dated 1988).

Molecular target: T1, 5-LOX (Homo sapiens, UniProt P09917)
T1 sequence (P09917 1-674): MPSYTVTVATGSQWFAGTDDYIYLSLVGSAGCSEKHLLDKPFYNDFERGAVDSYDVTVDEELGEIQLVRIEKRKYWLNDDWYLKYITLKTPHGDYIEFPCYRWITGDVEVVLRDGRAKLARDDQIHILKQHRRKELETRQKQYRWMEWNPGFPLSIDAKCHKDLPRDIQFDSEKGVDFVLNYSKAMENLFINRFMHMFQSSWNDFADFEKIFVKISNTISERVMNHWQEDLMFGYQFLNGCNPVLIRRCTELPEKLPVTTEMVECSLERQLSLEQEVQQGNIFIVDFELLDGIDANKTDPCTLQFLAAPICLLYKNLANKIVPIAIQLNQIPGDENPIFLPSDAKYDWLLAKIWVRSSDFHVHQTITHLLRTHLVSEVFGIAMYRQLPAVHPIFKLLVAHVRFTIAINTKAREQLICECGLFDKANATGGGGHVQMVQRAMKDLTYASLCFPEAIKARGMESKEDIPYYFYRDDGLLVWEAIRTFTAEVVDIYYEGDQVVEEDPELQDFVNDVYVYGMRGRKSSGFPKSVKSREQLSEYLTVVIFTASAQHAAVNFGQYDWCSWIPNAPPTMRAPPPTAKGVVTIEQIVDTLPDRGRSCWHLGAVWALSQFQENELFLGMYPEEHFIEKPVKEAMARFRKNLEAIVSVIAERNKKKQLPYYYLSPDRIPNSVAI
Test: 5-LOX inhibition (5-LOX I50, Table I)
Assay type: biochemical

Row | Structure (SMILES) | IC50 [nM]
1 | CCCCCC(C)(O)c1cccc(OCc2ccc3ccccc3n2)c1 (stereo not shown) | 100
2 | CCCCCC(NC)c1cccc(OCc2ccccn2)c1 (stereo not shown) | 2200
3 | OC(CCCCCOc1cccc(Cl)c1)c1cccc(OCc2ccc3ccccc3n2)c1 (stereo not shown) | 600
4 | OC(CCCCCOc1ccccc1)c1cccc(OCc2ccc3ccccc3n2)c1 (stereo not shown) | 600
5 | CC(O)(CCCCCOc1ccccc1)c1cccc(OCc2ccc3ccccc3n2)c1 (stereo not shown) | 800
6 | CCCCC(C)C(O)c1cccc(OCc2ccc3ccccc3n2)c1 (stereo not shown) | 200
7 | CCCCC(C)(C)C(O)c1cccc(OCc2ccc3ccccc3n2)c1 (stereo not shown) | 270
8 | CCCCC(C)(C)C(C)(O)c1cccc(OCc2ccc3ccccc3n2)c1 (stereo not shown) | 270
9 | CCCCCC(O)c1ccc(Oc2ccc3ccccc3n2)cc1 (stereo not shown) | 350
10 | CCCCCC(O)c1cccc(OCc2ccncc2)c1 (stereo not shown) | 3000
11 | CCCCCC(O)c1cccc(OCc2ccccn2)c1 (stereo not shown) | 500
12 | CCCCCC(O)c1cccc(OCc2cccnc2)c1 (stereo not shown) | 3000
13 | CCCCCC(O)c1cccc(OCc2cccc(C(=O)O)n2)c1 (stereo not shown) | 1900
14 | CCCCCC(O)c1cccc(OCc2cccc(C#N)n2)c1 (stereo not shown) | 30000
15 | CCCCCC(=O)c1cccc(OCc2ccc3ccccc3n2)c1 | 150
16 | CCCCCC(C)(O)c1cccc(OCc2ccccn2)c1 (stereo not shown) | 300
17 | CC(=O)CC(O)c1cccc(OCc2ccc3ccccc3n2)c1 (stereo not shown) | 180
18 | CCCCCC(O)c1ccc(OCc2ccc3ccccc3n2)cc1 (stereo not shown) | 350
19 | CCCCC=Cc1cccc(OCc2ccc3ccccc3n2)c1 [3-(CHCHC4 H9), 2-[3-(1-Hexenyl)phenoxymethyl]quinoline] | 2400
